This note sets out measurements from ChEMBL document CHEMBL2074349, “Rifampicin enhances anti-cancer drug accumulation and activity in multidrug-resistant cells” (Biochem Pharmacol, 1995).

In data set [1] the target is Multidrug resistance protein 1a (Rattus norvegicus) (UniProt Q6PSM0). The experiment in a line: TP_TRANSPORTER: increase in Vinblastine intracellular accumulation (Vinblastine: 0.0125 uM, Rifamycin B: 200 uM) in RHC1 cells. The data set is classed as functional, cell-based.
Data set [2] shares this target. The experiment in a line: TP_TRANSPORTER: increase in Vinblastine intracellular accumulation (Vinblastine: 0.0125 uM, Rifamycin SV: 200 uM) in RHC1 cells. The data set is classed as functional, cell-based.
The target of data set [3] is ATP-dependent translocase ABCB1 (Homo sapiens, UniProt P08183). The data set can be described thus: TP_TRANSPORTER: inhibition of Azidopine photoaffinity labelling (Rifampicin: 200 uM) in membranes from K562 R7 cells. Type of data set: functional, cell membranes, Membrane. The following applies: k562/r7, 200 µM.
Data set [4] addresses Multidrug resistance protein 1a (Rattus norvegicus) (UniProt Q6PSM0). The data set can be described thus: TP_TRANSPORTER: increase in Vinblastine intracellular accumulation (Vinblastine: 0.0125 uM, Rifampicin: 200 uM) in RHC1 cells. The data set is classed as functional, cell-based.

Multidrug resistance protein 1a (Rattus norvegicus), sequence (Q6PSM0 as listed by the source): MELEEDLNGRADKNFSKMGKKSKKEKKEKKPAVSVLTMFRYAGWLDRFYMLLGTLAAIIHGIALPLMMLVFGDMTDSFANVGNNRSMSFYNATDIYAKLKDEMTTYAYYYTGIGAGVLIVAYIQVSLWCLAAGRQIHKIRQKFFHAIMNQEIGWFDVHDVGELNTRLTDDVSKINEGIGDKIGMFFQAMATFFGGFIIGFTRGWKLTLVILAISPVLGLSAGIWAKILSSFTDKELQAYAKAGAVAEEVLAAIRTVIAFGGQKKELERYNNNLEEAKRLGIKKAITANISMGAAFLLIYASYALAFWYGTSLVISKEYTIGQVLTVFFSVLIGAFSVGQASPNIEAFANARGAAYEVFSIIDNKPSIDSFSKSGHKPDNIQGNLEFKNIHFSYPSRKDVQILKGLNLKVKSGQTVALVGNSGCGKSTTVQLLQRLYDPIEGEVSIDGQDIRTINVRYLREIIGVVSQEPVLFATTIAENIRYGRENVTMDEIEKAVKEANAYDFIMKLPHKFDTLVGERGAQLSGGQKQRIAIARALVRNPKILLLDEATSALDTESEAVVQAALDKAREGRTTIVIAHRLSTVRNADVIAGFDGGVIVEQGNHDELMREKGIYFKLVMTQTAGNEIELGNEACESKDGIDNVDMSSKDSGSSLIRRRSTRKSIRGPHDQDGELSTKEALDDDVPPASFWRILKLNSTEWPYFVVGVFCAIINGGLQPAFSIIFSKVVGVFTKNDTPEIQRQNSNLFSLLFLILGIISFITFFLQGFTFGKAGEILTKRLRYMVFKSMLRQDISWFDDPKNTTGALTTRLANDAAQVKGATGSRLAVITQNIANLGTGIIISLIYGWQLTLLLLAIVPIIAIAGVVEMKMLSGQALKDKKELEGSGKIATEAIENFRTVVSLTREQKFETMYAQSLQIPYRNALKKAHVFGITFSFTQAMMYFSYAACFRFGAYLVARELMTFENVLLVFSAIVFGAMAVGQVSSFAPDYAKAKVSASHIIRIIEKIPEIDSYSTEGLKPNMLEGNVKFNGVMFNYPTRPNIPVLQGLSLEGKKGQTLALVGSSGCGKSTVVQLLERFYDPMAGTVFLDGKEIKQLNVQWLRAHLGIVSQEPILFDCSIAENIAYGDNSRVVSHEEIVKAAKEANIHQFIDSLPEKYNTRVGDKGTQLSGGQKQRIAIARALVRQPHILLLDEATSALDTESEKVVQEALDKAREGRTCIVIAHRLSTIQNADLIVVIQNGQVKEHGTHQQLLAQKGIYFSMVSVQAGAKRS
ATP-dependent translocase ABCB1, sequence (P08183 whole entry): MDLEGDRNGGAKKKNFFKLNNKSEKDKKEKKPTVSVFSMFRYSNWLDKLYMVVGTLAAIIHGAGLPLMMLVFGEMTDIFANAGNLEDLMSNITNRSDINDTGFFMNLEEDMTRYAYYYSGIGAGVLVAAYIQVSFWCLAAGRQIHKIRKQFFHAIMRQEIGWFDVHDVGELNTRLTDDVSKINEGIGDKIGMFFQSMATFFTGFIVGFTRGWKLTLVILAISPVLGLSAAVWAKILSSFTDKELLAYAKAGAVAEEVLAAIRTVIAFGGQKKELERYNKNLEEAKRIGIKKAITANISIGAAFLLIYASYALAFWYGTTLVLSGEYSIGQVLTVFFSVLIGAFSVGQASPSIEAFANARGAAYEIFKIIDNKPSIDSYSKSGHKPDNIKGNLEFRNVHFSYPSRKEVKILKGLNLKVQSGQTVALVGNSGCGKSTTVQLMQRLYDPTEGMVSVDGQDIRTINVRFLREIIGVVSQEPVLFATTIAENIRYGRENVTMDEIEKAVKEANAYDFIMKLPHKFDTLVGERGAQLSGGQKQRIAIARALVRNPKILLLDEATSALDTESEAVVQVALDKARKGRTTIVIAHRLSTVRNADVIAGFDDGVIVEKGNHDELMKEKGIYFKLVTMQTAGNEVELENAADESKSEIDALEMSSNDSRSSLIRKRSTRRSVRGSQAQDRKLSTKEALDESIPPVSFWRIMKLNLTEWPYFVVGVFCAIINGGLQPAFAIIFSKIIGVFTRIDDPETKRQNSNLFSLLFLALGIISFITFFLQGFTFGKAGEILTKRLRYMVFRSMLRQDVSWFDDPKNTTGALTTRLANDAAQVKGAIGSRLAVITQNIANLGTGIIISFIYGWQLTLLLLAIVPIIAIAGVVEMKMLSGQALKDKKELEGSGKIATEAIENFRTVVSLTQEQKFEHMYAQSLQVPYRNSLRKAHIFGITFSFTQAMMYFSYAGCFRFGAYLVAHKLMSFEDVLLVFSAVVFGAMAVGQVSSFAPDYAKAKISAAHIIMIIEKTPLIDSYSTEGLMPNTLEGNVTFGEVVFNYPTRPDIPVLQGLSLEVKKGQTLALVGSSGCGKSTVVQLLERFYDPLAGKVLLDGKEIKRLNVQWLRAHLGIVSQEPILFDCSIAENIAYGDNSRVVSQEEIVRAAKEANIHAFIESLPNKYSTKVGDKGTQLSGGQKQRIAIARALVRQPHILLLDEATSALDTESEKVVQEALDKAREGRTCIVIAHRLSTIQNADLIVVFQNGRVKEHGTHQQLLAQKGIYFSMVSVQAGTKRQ

`COC1/C=C/OC2(C)Oc3c(C)c(O)c4c(O)c(cc(OCC(=O)Nc5ccc(I)cc5)c4c3C2=O)NC(=O)/C(C)=C\C=C\C(C)C(O)C(C)C(O)C(C)C(OC(C)=O)C1C` (centres undefined): in data set [1], the Activity entry is “is not an inhibitor [-]”. Turning to `CO[C@H]1/C=C/O[C@@]2(C)Oc3c(C)c(O)c4c(O)c(cc(O)c4c3C2=O)NC(=O)/C(C)=C\C=C\[C@H](C)[C@H](O)[C@@H](C)[C@@H](O)[C@@H](C)[C@H](OC(C)=O)[C@@H]1C`, the Activity entry in data set [2] was “inhibitor [+]”. Turning to `CO[C@H]1/C=C/O[C@@]2(C)Oc3c(C)c(O)c4c(O)c(c(/C=N/N5CCN(C)CC5)c(O)c4c3C2=O)NC(=O)/C(C)=C\C=C\[C@H](C)[C@H](O)[C@@H](C)[C@@H](O)[C@@H](C)[C@H](OC(C)=O)[C@@H]1C` [RIFAMPIN], the Activity result in data set [3] and in data set [4] was “inhibitor [+]” in each case.
